Test results taken from patent publication US10052320B2, “Substituted quinoxalines as FGFR kinase inhibitors” (ASTEX THERAPEUTICS LIMITED, priority 2011, dated 2018).

Experiments:
Type in all cases: cell-based
[1] = target: Ba/F3-FGFR3-transfected cells (Homo sapiens, UniProt P22607); test: Ba/F3-FGFR3 (minus IL3) cellular proliferation assay, Alamar Blue; conditions: for BAF3-FGFR 3 (MIN IL3) 384 well pIC50: minus IL3, 384 well; for BAF3-FGFR 3 (MIN IL3) 96 well pIC50: minus IL3, 96 well
Outline: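 Compound in DMSO was applied to FGFR3-transfected Ba/F3 cells, which were cultured 24 h and assessed for viability by Alamar Blue reduction over 4 h (fluorescence, ex 540/em 590 nm).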

[2] = target: T1, Ba/F3-Flt3-transfected cells (Homo sapiens, UniProt P36888, cells depend on it, form not given); test: Ba/F3-Flt3 (minus IL3) cellular proliferation assay, Alamar Blue; conditions: minus IL3
T1 sequence (P36888 1-993): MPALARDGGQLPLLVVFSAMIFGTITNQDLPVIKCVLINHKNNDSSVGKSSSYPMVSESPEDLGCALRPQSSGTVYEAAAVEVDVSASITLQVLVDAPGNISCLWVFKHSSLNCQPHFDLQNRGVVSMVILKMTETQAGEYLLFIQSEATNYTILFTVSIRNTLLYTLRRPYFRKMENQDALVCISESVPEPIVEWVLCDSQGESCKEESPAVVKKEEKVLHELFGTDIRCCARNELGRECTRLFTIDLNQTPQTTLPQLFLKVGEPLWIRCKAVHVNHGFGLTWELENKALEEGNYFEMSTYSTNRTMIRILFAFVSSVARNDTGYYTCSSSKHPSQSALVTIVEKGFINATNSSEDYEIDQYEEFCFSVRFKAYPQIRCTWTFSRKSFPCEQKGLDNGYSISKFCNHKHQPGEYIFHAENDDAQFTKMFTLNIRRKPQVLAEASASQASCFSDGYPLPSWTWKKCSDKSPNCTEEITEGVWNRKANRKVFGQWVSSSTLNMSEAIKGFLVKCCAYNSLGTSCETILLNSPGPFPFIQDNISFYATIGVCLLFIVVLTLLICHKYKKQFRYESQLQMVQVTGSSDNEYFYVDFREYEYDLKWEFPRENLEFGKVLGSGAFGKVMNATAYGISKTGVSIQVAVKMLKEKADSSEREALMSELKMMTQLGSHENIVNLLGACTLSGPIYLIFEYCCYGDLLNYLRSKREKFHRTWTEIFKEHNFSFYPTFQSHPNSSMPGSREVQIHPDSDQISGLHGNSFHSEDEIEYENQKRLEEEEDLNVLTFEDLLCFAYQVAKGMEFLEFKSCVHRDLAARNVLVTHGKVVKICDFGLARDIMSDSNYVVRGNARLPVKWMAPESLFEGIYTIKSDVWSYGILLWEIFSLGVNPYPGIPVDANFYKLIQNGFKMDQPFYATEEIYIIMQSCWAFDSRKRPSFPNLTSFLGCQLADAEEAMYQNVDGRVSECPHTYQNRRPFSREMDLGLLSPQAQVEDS

[3] = target: Ba/F3-FGFR4-transfected cells (Homo sapiens, UniProt P22455); test: Ba/F3-FGFR4 cellular proliferation assay, Alamar Blue
Ba/F3-FGFR4-transfected cells, sequence (P22455 whole entry, change not shown): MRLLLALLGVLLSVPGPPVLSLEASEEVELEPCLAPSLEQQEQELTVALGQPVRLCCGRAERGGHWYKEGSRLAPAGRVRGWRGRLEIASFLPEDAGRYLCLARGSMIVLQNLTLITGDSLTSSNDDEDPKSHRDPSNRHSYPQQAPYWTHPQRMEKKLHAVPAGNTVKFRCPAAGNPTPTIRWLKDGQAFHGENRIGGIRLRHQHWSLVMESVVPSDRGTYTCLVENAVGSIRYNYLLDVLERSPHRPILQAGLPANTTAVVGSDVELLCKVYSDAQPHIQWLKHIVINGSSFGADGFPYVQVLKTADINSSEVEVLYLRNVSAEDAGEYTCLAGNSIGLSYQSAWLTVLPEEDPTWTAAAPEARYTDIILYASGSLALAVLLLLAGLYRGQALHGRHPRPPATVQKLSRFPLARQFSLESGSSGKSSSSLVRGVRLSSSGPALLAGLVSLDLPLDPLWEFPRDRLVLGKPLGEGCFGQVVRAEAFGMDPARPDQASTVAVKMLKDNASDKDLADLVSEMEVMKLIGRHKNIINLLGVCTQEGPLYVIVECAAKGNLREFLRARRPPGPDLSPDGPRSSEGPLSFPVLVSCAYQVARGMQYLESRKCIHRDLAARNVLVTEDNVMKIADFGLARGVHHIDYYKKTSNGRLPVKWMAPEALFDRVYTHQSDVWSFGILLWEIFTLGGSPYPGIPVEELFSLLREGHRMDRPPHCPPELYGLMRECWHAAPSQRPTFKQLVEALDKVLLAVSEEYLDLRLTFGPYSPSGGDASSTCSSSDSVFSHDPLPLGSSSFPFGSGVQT
Outline: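 Ba/F3 cells transfected with FGFR4, 20000 cells/well in phenol red-free RPMI-1640 with 10% FBS, were exposed to compound for 24 h at 37° C, 5% CO2. Alamar Blue (resazurin) was then added for 4 h, and fluorescence was read at ex 540/em 590 nm.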

Ba/F3-FGFR3-transfected cells, sequence (P22607 whole entry, change not shown): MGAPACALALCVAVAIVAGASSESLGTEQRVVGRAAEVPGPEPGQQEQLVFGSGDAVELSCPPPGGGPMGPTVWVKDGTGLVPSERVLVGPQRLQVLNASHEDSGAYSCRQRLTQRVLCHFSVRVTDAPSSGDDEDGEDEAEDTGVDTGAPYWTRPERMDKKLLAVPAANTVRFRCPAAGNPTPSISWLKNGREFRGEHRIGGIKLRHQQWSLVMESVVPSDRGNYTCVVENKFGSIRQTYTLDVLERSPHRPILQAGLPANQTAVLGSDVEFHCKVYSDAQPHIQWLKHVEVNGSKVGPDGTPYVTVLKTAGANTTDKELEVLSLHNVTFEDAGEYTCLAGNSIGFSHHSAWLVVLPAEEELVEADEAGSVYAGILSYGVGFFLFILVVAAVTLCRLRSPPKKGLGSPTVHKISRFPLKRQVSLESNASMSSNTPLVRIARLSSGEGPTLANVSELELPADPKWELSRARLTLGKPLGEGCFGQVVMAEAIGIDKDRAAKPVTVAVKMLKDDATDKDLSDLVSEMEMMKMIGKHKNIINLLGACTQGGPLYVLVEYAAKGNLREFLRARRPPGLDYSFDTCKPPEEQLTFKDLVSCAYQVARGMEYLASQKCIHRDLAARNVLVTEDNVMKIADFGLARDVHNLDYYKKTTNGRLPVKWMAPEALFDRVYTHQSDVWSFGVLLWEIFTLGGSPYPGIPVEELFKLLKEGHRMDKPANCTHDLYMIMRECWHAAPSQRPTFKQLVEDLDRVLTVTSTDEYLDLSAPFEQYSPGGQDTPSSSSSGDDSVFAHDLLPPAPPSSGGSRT

Row | Compound | BAF3-FGFR 3 (MIN IL3) 384 well pIC50 [1] | BAF3-FLT3 (MIN IL3) 384 well pIC50 [2] | BAF3-FGFR4 pIC50 [3] | BAF3-FGFR 3 (MIN IL3) 96 well pIC50 [1] | BAF3-FLT3 (MIN IL3) 96 well pIC50 [2]
1 | COc1cc(OC)cc(N(CCO)c2ccc3ncc(-c4ccncc4)nc3c2)c1 [Compound 11] | 6.65 | <5 | 5.9 | – | –
2 | COc1cc(OC)cc(N(CCNC(C)C)c2ccc3ncc(-c4ccncc4)nc3c2)c1 [Compound 12] | ~7.03 | 5.14 | 6.8 | – | –
3 | CNC(=O)c1cc(-c2cnc3ccc(N(CCNC(C)C)c4cc(OC)cc(OC)c4)cc3n2)ccn1 [Compound 14] | 7.03 | 5.02 | 6.8 | – | –
4 | COc1cc(OC)cc(N(CCNC(C)C)c2ccc3ncc(-c4ccc(N)nc4)nc3c2)c1 [Compound 17] | ~7.09 | 5.17 | ~7.11 | – | –
5 | COc1cc(OC)cc(N(CC2CC2)c2ccc3ncc(C#Cc4ccncc4)nc3c2)c1 [Compound 23] | 5.1 | <5 | <5 | 5.66 | 5.31
6 | COc1cc(OC)cc(N(CC2CC2)c2ccc3ncc(-c4cn(CCN5CCOCC5)nn4)nc3c2)c1 [Compound 24] | ~5.7 | <5 | ~5.1 | 5.59 | <5
7 | CNC(=O)c1cc(-c2cnc3ccc(N(CCN4CCCC4=O)c4cc(OC)cc(OC)c4)cc3n2)ccn1 [Compound 25] | 5.13 | <5 | <5 | – | –

Next, values leading:

Row | BAF3-FGFR 3 (MIN IL3) 384 well pIC50 [1] | BAF3-FLT3 (MIN IL3) 384 well pIC50 [2] | BAF3-FGFR4 pIC50 [3] | BAF3-FGFR 3 (MIN IL3) 96 well pIC50 [1] | BAF3-FLT3 (MIN IL3) 96 well pIC50 [2] | Compound
8 | 5.51 | <5 | <5.35 | 5.94 | 5.06 | COc1cc(OC)cc(N(CC2CC2)c2ccc3ncc(-n4cnc(C)c4)nc3c2)c1 [Compound 30]
9 | <5 | <5 | <5 | <5 | <5 | COc1cc(OC)cc(N(CC2CC2)c2ccc3ncc(-n4ccc(C)n4)nc3c2)c1 [Compound 31]
10 | <5 | <5 | <5 | <5 | <5 | COc1cc(OC)cc(N(CC2CC2)c2ccc3ncc(-n4ccnc4C)nc3c2)c1 [Compound 32]
11 | 5.51 | <5 | 5.2 | – | – | COc1cc(OC)cc(N(CCCO)c2ccc3ncc(-c4ccnc(C(=O)NCCCN)c4)nc3c2)c1 [Compound 33]
12 | ~5.15 | <5 | ~5.0 | 5.04 | <5 | COc1cc(OC)cc(N(CC2CC2)c2ccc3ncc(-c4cn(CCO)nn4)nc3c2)c1 [Compound 40]
13 | <5 | <5 | <5 | <5 | <5 | COc1cc(OC)cc(N(CC2CC2)c2ccc3ncc(-c4nnn[nH]4)nc3c2)c1 [Compound 41]
14 | 6.87 | 5.44 | 6.5 | – | – | COc1cc(OC)cc(N(CCCO)c2ccc3ncc(-c4ccc(N5CCNCC5)nc4)nc3c2)c1 [Compound 48]
15 | <5 | <5 | <5 | <5 | <5 | COc1cc(OC)cc(N(CC2CC2)c2ccc3ncc(-n4cncn4)nc3c2)c1 [Compound 50]
16 | ~5.77 | 5.27 | 5.7 | – | – | COc1cc(OC)cc(N(Cc2cccc(CN)n2)c2ccc3ncc(-c4ccc(N)nc4)nc3c2)c1 [Compound 51]
